Laboratory results reported in patent publication US20030148963A1 (priority 2000, published 2003).
Marks after values point to notes of the source that are not given here.

Tests used:
spleen mononuclear cells = type: cell-based; details: spleen cells of mice given 12.5 mg/kg 4 days a week for 4 weeks
S. aureus LS-1 = test: Determination of bacterial growth in kidneys, blood and joints; type: in vivo; details: for Bacterial growth in blood / Bacterial growth in kidney: mean ± SEM
Method: On days 3 and 6-7 after S. aureus inoculation blood samples were obtained and the kidneys were aseptically removed. Appropriate dilutions were made and 0.1 ml of tissue suspensions and of whole blood was plated on agar plates containing 5% horse blood. Six days after the inoculation bacterial samples from the talocrural and radiocarpal joints were obtained and plated on agar plates, containing 7.5% sodium chloride. After incubation for 48 h at 37° C. the bacterial colonies were counted and tested for catalase and coagulase activity.

[1] = tested on: draining lymph node cells; test: Draining lymph node response after CII immunization; type: in vivo, mice
MIP-1α [2] = test: Serum MIP-1α in CII immunized mice (ELISA); type: in vivo, B10.QxDBA/1 female mice; details: serum at end of experiment, mean ± SEM
Method: (§1) Levels of TNF, IL-1b, RANTES, and macrophage inflammatory protein (MIP)-1α were determined using sandwich ELISA from R&D Systems (Minneapolis, Minn.).

[3] = tested on: T cell mediated DTH reaction; test: Delayed type hypersensitivity to oxazolone (ear swelling); type: in vivo, mice; details: 12.5 mg/kg two days, the day before and 1 h before challenge; 24 h; similar to controls
[4] = tested on: peripheral blood leukocytes; test: Hematological analyses during S. aureus infection; type: in vivo, NMRI mice
Method: (§2) Hematological Analyses Mice were bled from the tail into heparinized tubes on days −3, −1, 3, and 6-7 after bacterial inoculation. The leukocytes were counted in a hemacytometer (Toa Medical Electronics, Kobe, Japan). Fifty microliters of the heparinized blood was analysed in a FACScan cytometer (Becton Dickinson, San Jose, Calif.) to determine the percentages of lymphocytes, granulocytes, and monocytes, respectively. The absolute numbers of different leukocyte subsets were then calculated from the total leukocyte counts.

peripheral leukocytes = test: Peripheral blood cell count in naive mice; type: in vivo; details: 12.5 mg/kg 4 days per week for 4 weeks, 3 days after last treatment
Method: as §2, with “Mice” for “Hematological Analyses Mice”, “at different time-points.” for “on days −3, −1, 3, and 6-7 after bacterial inoculation.”, “analyzed” for “analysed”, “monocytes.” for “monocytes, respectively.”

TNF-α = type: cell-based; details: spleen cells of mice given 12.5 mg/kg 4 days a week for 4 weeks; mean ± SEM, 4 mice
MIP-1α [5] = test: MIP-1α release by IC-21 macrophage cell line; type: cell-based, murine
Method: as §1
These cells display many typical features of the macrophage phenotype and are therefore a suitable model for studying cytoline and chemokine release during inflammation (16). The cells were maintained in continous culture using RPMI-1640 supplemented with 10% FCS, L-glutamine, and gentamycin. When the cells had grown to about 70% confluency, they were seeded into a 24-well-plate (Nunc) at a concentration of 1×10^5 per well and incubated at 37° C. in 5% CO2 for 24 h. […] After 24 h of incubation, the cells were washed once with PBS, and reincubated with medium containing different concentrations (1, 10, 100, 1000 ng/ml) of LPS (Difco) and IFN-γ (10, 50, 100 u/nml). The interferon-γ was purified from the supernatants from Chinese hanater ovary (CHO) cells transfected with the murine IFN-γ gene (hybridoma kindly provided by Dr. Morris, Department of Biological Sciences, University of Warwick, Coventry, UK). After 2 and 24 h of incubation the supernatants were collected and stored at −20° C. until analysis.

IFN-γ = test: Serum IFN-γ in CII immunized mice (ELISA); type: in vivo, B10.QxDBA/1 female mice; details: serum at end of experiment, mean ± SEM
Method: For quantification of serfu CII antibodies, 96-well plates (Nunc, Roskilde, Denmark) were coated overnight at 4° C. with 10 μg/ml of native CII. Standards and samples were diluted in 0.5% BSA-PBS. Biotinylated F(ab/)2 fragments of goat anti-mouse IgG (Jackson ImmunoResearch Laboratories, West Grove, Pa.) was used as secondary antibody. Development was performed using horseradish peroxidase 0.5 μg/ml and 2.5 mg of the enzyme substrate 2,2-azino-bis-(3-ethylbenzothiazoline sulfonic acid) (Sigma) per mal in citrate buffer (pH 4.2), containing 0.0075% H2O2. The absorbance was measured at 405 nm in a SPECTRAmax spectrophotometer (Molecular Devices, Calif.). IFN-γ levels in sera were quantified with an ELISA system previously described (13). Ninety-six well plates (Nunc) were coated with 2 μg/ml of rat anti-mouse IFN-γ mab (Pharmingen, San Diego, Calif.). Sera, recombinant IFN-γ (Genzyme, Cambridge, Mass.), biotinylated antibodies were all diluted in 0.05 M Tris pH 7.4+0.015 M NaCl. A biotinylated anti mouse IFN-γ antibody (2 μg/ml) (Pharmigen) was used as secondary antibody. After incubation with extravidin alkaline phosphatase 0.5 ?g/ml and alkaline phosphatase substrate 1 mg/ml (Sigma) the absorbance was measured at 405 nm. Interleukin 6 (IL-6) levels in serum and supernatants were measured by a bioassay using cell line B13.29, subclone B9, which is dependent on IL-6 for growth. […]

[6] = Day 3 after 1-2×10^7 CFU S. aureus
[7] = Day 6-7 after 1-2×10^7 CFU S. aureus
[8] = Etoposide-treated (from day 40)

COc1cc([C@@H]2c3cc4c(cc3[C@@H](O[C@@H]3O[C@@H]5CO[C@@H](C)O[C@H]5[C@H](O)[C@H]3O)[C@H]3COC(=O)[C@H]23)OCO4)cc(OC)c1O [Etoposide]
Counts per minute (CPM), TSST-1 (spleen mononuclear cells; first value of merged cell): 1117 ± 26 CPM
Counts per minute (CPM), Con A (spleen mononuclear cells; mean ± SEM, 4 mice): 2183 ± 214^a) CPM
Counts per minute (CPM), 0 (unstimulated) (spleen mononuclear cells; second value of merged cell): 156 ± 9 CPM
Mice with bacteria recovered from joints (S. aureus LS-1; 6 days after inoculation, controls 3 out of 10): 3 out of 8
Bacterial growth in blood (S. aureus LS-1; [6]): 60 × 10^7 CFU/ml
Bacterial growth in kidney (S. aureus LS-1; [6]): 3 ± 2 × 10^7 CFU
Bacterial growth in blood (S. aureus LS-1; [7]): 290 ± 100 × 10^7 CFU/ml
Bacterial growth in kidney (S. aureus LS-1; [7]): 67 ± 12 × 10^7 CFU
Numbers of B cells, T cells, macrophages and germinal centers in inguinal lymph nodes ([1]; 10 days after CII immunization, immunohistochemical stainings): no significant effects on numbers
Antibodies to CII in lymph node cell cultures ([1]; lymph node cells challenged in vitro with CII, vs PBS controls): not produced at all
T cell functions (proliferation, IFN-γ secretion) of lymph node cells ([1]; lymph node cells challenged in vitro with CII, data not shown): no difference in T cell functions
MIP-1a (MIP-1α [2]; Etoposide-pretreated): 3.0 ± 0.5^c pg/ml
MIP-1a (MIP-1α [2]; [8]): 2.9 ± 0.3^c pg/ml
DTH reaction to oxazolone (ear thickness increase) [3]: 32±6 ×10^−3 cm
Numbers of lymphocytes ([4]; day prior to bacterial inoculation): 5.6±0.4 ×10^6/ml
Numbers of granulocytes ([4]; day −1): 1.3±0.2 ×10^6/ml
Levels of circulating monocytes ([4]; etoposide from three days prior to S. aureus inoculation, FIG. 4): significantly decreased
Numbers of lymphocytes ([4]; seven days after infection): 0.8±0.2 ×10^6/ml
Numbers of granulocytes ([4]; seven days after the inoculation): 1.6±0.4 ×10^6/ml
Numbers of granulocytes (peripheral leukocytes): 1.1±0.4 ×10^4/ml
Numbers of monocytes (peripheral leukocytes): 71±28 ×10^4/ml
TNF-α, Con A (TNF-α): 6 ± 0.5^a) pg/ml
TNF-α, TSST-1 (TNF-α): 6 ± 0.4^a) pg/ml
Levels of MIP-1α in supernatants (MIP-1α [5]; etoposide 0.01 μM 24 h, then IFN-γ 0 u/ml 24 h): 5700 pg/mL
Levels of MIP-1α in supernatants (MIP-1α [5]; etoposide 0.01 μM 24 h, then IFN-γ 10 u/ml 24 h): 4200 pg/mL
Levels of MIP-1α in supernatants (MIP-1α [5]; etoposide 0.01 μM 24 h, then IFN-γ 50 u/ml 24 h): 1075 pg/mL
Levels of MIP-1α in supernatants (MIP-1α [5]; etoposide 0.01 μM 24 h, then IFN-γ 100 u/ml 24 h): 800 pg/mL
Levels of MIP-1α in supernatants (MIP-1α [5]; etoposide 0.1 μM 24 h, then IFN-γ 0 u/ml 24 h): 3400 pg/mL
Levels of MIP-1α in supernatants (MIP-1α [5]; etoposide 0.1 μM 24 h, then IFN-γ 10 u/ml 24 h): 1950 pg/mL
Levels of MIP-1α in supernatants (MIP-1α [5]; etoposide 0.1 μM 24 h, then IFN-γ 50 u/ml 24 h): 900 pg/mL
Levels of MIP-1α in supernatants (MIP-1α [5]; etoposide 0.1 μM 24 h, then IFN-γ 100 u/ml 24 h): 488 pg/mL
IFN-g (IFN-γ; Etoposide-pretreated): 1848 ± 248^c u/ml
IFN-g (IFN-γ; [8]): 2094 ± 199^b u/ml
